Laboratory results as given in article PMC7771853, “Differential effects of novel kappa opioid receptor antagonists on dopamine neurons using acute brain slice electrophysiology” (PLoS ONE, 2020).

Columns and labels:
VTA neurons = assay: Wash in of antagonist: change in Iholding in VTA neurons; format: cell-based, rat; details: for change in Iholding on wash in: across the concentrations tested
KOR = system: KOR; design: method as in PMID 21832171; details: cited from earlier work

## CCc1cc(F)c2nc(N3CCC(NC4CCOCC4)CC3)c(-c3nc(C)no3)c(C)c2c1 [BTRX-335140, 1-(6-ethyl-8-fluoro-4-methyl-3-(3-methyl-1,2,4-oxadiazol-5-yl)quinolin-2-yl)-N-(tetrahydro-2H-pyran-4-yl)piperidin-4 amine]
VTA neurons
  change in Iholding on wash in: means very close to zero

## CCc1ccc2nc(N3CCC(NCC4(C)COC4)CC3)c(-c3nc(C)no3)cc2c1 [BTRX-395750]
VTA neurons
  change in Iholding on wash in: means very close to zero

## Cc1cc(C)cc([C@@H]2CCCN2Cc2ccc(Oc3ccc(C(N)=O)cc3F)cc2)c1 [JNJ-67953964, (S)-3-fluoro-4-(4-((2-(3,5-dimethylphenyl)pyrrolidin-1-yl)methyl)phenoxy)benzamide]
VTA neurons; 10 nM antagonist
  neurons with possible inward current on wash in: 3 of 13

## CC(C)CNCc1ccc(-c2ccccc2S(=O)(=O)N2CCCC2)cc1 [PF-04455242, 2-methyl-N-((2'-(pyrrolidin-1-ylsulfonyl)biphenyl-4-yl)methyl)propan-1-amine]
VTA neurons; 1 μM antagonist
  neurons with outward current independent of KOR activation: 3/8
KOR; HEK293 cells expressing KOR ref 21
  extracellular signal-regulated kinase (ERK) phosphorylation: did not generate
KOR; HEK293 cells expressing KOR, compared to other KOR antagonists ref 21
  c-Jun N terminal kinase (JNK) phosphorylation: minimal
